Measurements from patent US10722484B2, “Methods of cancer treatment” (K-Gen, Inc., priority 2016, dated 2020).
“Also recorded” adds a separate entry of the source.

Test system: A549 lung cancer cell line
Assay: Combination viability/proliferation assays (384-well IC50 ratio, 96-well MacSynergy II)
Assay type: cell-based
Details: for Ratio ([…] DMSO IC50/combination IC50) / Combination in A549: K101A (synergism/antagonism) / Combination in A549: K101E (synergism/antagonism) / Combination in A549: K102 (synergism/antagonism): A549; for Ratio ([…] DMSO IC50/combination IC50): NC: no change; for effect in combination with the PKC activator compounds in inhibiting the growth of A549 cells: PKC activator compounds (K101A, K101E, K102); for Combination in A549: K101A (synergism/antagonism): agent assayed in combination with K101A; for Combination in A549: K101A (synergism/antagonism) / Combination in A549: K102 (synergism/antagonism): * 2-3 concentrations, # full concentration ranges; for Combination in A549: K101E (synergism/antagonism): agent assayed in combination with K101E; for Combination in A549: K102 (synergism/antagonism): agent assayed in combination with K102
Procedure: A 96-well MacSynergy II format for combination test was also used. […] The analysis was done with the SQRT(Data) scale and the four parameter Hill curve was fitted using XLfit5.1 (the MacSynergy II Excel Spreadsheet) for the inhibition data. Synergy (positive number) or Antagonism (negative number) volumes were calculated. […] Three-dimensional MacSynergy II graphs were generated where positive values indicated synergism and negative values indicated antagonism.

[1] = in combination with 0.002 μM K102
[2] = in combination with 0.02 μM K102
[3] = in combination with 0.05 μM K101A
[4] = in combination with 0.5 μM K101A, ratio >2 synergistic, <0.5 antagonistic

Ratio ([…] DMSO IC50/combination IC50) [1] | Ratio ([…] DMSO IC50/combination IC50) [2] | Ratio ([…] DMSO IC50/combination IC50) [3] | Ratio ([…] DMSO IC50/combination IC50) [4] | Ratio ([…] DMSO IC50/combination IC50) (in combination with […] K101E) | Ratio ([…] DMSO IC50/combination IC50) (in combination with 0.0002 μM K102) | Ratio ([…] DMSO IC50/combination IC50) (in combination with 0.005 μM K101A) | SMILES | effect in combination with K101A or K102 in inhibiting the growth of A549 cells | effect in combination with the PKC activator compounds in inhibiting the growth of A549 cells | Combination in A549: K101A (synergism/antagonism) | Combination in A549: K101E (synergism/antagonism) | Combination in A549: K102 (synergism/antagonism)
 |  |  |  |  |  |  | O=C1[O][Pt]2([NH][C@@H]3CCCC[C@H]3[NH]2)[O]C1=O [Oxaliplatin] | synergy |  |  |  | 
>2 | >2 | >2 | >2 | >2 |  |  | CO[C@H]1C[C@@H]2CC[C@@H](C)[C@@](O)(O2)C(=O)C(=O)N2CCCC[C@H]2C(=O)O[C@H]([C@H](C)C[C@@H]2CC[C@@H](OCCO)[C@H](OC)C2)CC(=O)[C@H](C)/C=C(\C)[C@@H](O)[C@@H](OC)C(=O)[C@H](C)C[C@H](C)/C=C/C=C/C=C/1C [Everolimus] |  | strong synergy | Synergism | Synergism. | Synergism
 |  |  |  |  |  |  | Cc1cc(-c2ncc(CC(=O)Nc3ccc(-c4cnccn4)cn3)cc2C)ccn1 [LGK-974, 2-[5-methyl-6-(2-methylpyridin-4-yl)pyridin-3-yl]-N-(5-pyrazin-2-ylpyridin-2-yl)acetamide] |  |  | Synergism (minor) |  | Synergism (minor)
 |  |  |  |  |  |  | CS(=O)(=O)CCNCc1ccc(-c2ccc3ncnc(Nc4ccc(OCc5cccc(F)c5)c(Cl)c4)c3c2)o1 [Lapatinib] |  | no or insignificant antagonistic effect; also recorded: insignificant synergism or antagonism |  |  | 
1.24 | 2.36 | 1.21 | 2.43 |  | 0.86 | 0.94 | Nc1cc(C(F)(F)F)c(-c2cc(N3CCOCC3)nc(N3CCOCC3)n2)cn1 [BKM-120, 5-[2,6-Di(4-morpholinyl)-4-pyrimidinyl]-4-(trifluoromethyl)-2-pyridinamine] |  | strong synergy | Synergism (strong) | None | Synergism (moderate)
